Drawing on patent US20240425490A1, “SULFAMIDE RIBONUCLEOTIDE REDUCTASE (RNR) INHIBITORS AND USES THEREOF” (Boundless Bio, Inc., priority 2021, published 2024), this text covers IC50 for 21 compounds.

Structures are written as SMILES.

The target of the assay is T1, RNR (RNR1:RNR2 1:1) (Homo sapiens, UniProt P23921).
T1 sequence (P23921 1-792): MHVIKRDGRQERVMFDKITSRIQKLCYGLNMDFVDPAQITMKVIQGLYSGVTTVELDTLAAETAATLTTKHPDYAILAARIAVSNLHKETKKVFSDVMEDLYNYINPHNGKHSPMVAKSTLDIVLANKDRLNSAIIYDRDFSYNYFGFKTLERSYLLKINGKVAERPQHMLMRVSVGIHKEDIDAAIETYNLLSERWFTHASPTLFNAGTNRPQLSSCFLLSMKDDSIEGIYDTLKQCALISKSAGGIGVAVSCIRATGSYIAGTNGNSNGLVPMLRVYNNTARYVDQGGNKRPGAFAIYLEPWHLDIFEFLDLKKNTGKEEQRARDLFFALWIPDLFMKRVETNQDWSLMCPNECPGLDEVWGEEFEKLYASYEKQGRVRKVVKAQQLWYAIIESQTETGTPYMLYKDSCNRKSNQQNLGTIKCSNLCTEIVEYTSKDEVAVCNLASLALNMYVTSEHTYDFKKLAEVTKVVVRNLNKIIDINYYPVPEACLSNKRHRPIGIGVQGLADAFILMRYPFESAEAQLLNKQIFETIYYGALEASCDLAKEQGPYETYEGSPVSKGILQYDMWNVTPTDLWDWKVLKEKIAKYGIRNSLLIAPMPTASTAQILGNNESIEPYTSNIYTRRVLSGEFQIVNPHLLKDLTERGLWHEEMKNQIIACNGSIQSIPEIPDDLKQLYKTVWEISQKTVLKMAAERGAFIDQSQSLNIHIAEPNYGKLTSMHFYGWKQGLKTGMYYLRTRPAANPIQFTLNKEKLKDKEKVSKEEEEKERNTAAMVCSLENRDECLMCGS
The assay is described as follows: RNR enzyme activity, rapid-fire mass spectrometry (RFMS) assay. It is filed as biochemical. The following applies: RNR 50 nM, CDP 5 μM, ATP 1 mM, 37° C., 45 min, compounds screened up to 50 μM, read-out: RF/MS IC50. The method in brief:
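Human RNR1:RNR2 (1:1, 50 nM) pre-incubated 15 min at room temperature with compound, then reacted with 5 μM CDP and 1 mM ATP, no NADPH, for 45 min at 37 °C. Stopped with 6% HCOOH; turnover read by rapid-fire mass spectrometry; Triapine and hydroxyurea as reference compounds.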
As for `Cc1ccc(F)c(C(C)[C@H](NS(=O)(=O)N2CCCC2)c2n[nH]c(=O)o2)c1C` (stereo partly drawn) [Example 112, N-((1S)-2-(6-fluoro-2,3-dimethylphenyl)-1-(5-oxo-4,5-dihydro-1,3,4-oxadiazol-2-yl)propyl)pyrrolidine-1-sulfonamide], the IC50 fell in the range of 1 to 10 µM.
`Cc1ccc(F)c([C@@H](C)[C@H](NS(=O)(=O)N2CCC(C)(C)CC2)c2n[nH]c(=O)o2)c1C` [Example 113, N-((1S,2R)-2-(6-fluoro-2,3-dimethylphenyl)-1-(5-oxo-4,5-dihydro-1,3,4-oxadiazol-2-yl)propyl)-4,4-dimethyl piperidine-1-sulfonamide]: the IC50 lay in the range of 0.1 to 1 µM.
Turning to `Cc1ccc(F)c([C@H](C)[C@H](NS(=O)(=O)N2CCC(C)(C)CC2)c2n[nH]c(=O)o2)c1C` [Example 114, N-((1S,2S)-2-(6-fluoro-2,3-dimethylphenyl)-1-(5-oxo-4,5-dihydro-1,3,4-oxadiazol-2-yl)propyl)-4,4-dimethylpiperidine-1-sulfonamide], the IC50 was in the range of 1 to 10 µM.
With `Cc1ccc(F)c([C@@H](C)[C@H](NS(=O)(=O)N2CCC(C)CC2)c2n[nH]c(=O)o2)c1C` [Example 115, N-((1S,2R)-2-(6-fluoro-2,3-dimethylphenyl)-1-(5-oxo-4,5-dihydro-1,3,4-oxadiazol-2-yl)propyl)-4-methylpiperidine-1-sulfonamide], the IC50 lay within 0.1 to 1 µM.
Take `Cc1ccc(F)c([C@H](C)[C@H](NS(=O)(=O)N2CCC(C)CC2)c2n[nH]c(=O)o2)c1C` [Example 116, N-((1S,2S)-2-(6-fluoro-2,3-dimethylphenyl)-1-(5-oxo-4,5-dihydro-1,3,4-oxadiazol-2-yl)propyl)-4-methylpiperidine-1-sulfonamide]: the IC50 lay within 1 to 10 µM.
With `Cc1ccc(F)c([C@@H](C)[C@H](NS(=O)(=O)N2CCCC(C)(C)C2)c2n[nH]c(=O)o2)c1C` [Example 117, N-((1S,2R)-2-(6-fluoro-2,3-dimethylphenyl)-1-(5-oxo-4,5-dihydro-1,3,4-oxadiazol-2-yl)propyl)-3,3-dimethylpiperidine-1-sulfonamide], the IC50 lay within 1 to 10 µM.
Regarding `CCN(CC1CC1)S(=O)(=O)N[C@H](c1n[nH]c(=O)o1)[C@H](C)c1c(F)ccc(C)c1C` [Example 118], the IC50 is 1 to 10 µM.
On to `Cc1ccc(F)c([C@H](C)[C@H](NS(=O)(=O)N2CCCC(C)(C)C2)c2n[nH]c(=O)o2)c1C` [Example 119, N-((1S,2S)-2-(6-fluoro-2,3-dimethylphenyl)-1-(5-oxo-4,5-dihydro-1,3,4-oxadiazol-2-yl)propyl)-3,3-dimethylpiperidine-1-sulfonamide], for which the IC50 was in the range of 1 to 10 µM.
For `CCN(CC1CC1)S(=O)(=O)N[C@H](c1n[nH]c(=O)o1)[C@@H](C)c1c(F)ccc(C)c1C` [Example 120], the IC50 lay within 10 to 100 µM.
Regarding `Cc1ccc(F)c([C@@H](C)[C@H](NS(=O)(=O)N2CC(C)CC(C)C2)c2n[nH]c(=O)o2)c1C` (stereo partly drawn) [Example 121, N-((1S,2R)-2-(6-fluoro-2,3-dimethylphenyl)-1-(5-oxo-4,5-dihydro-1,3,4-oxadiazol-2-yl)propyl)-3,5-dimethylpiperidine-1-sulfonamide], the IC50 is 1 to 10 µM.
For the compound `Cc1ccc(F)c([C@H](C)[C@H](NS(=O)(=O)N2CC(C)CC(C)C2)c2n[nH]c(=O)o2)c1C` (stereo partly drawn) [Example 122, N-((1S,2S)-2-(6-fluoro-2,3-dimethylphenyl)-1-(5-oxo-4,5-dihydro-1,3,4-oxadiazol-2-yl)propyl)-3,5-dimethylpiperidine-1-sulfonamide], the IC50 lay in the range of 1 to 10 µM.
For `Cc1ccc(F)c(C(C)[C@H](NS(=O)(=O)N2CCC(C#N)CC2)c2n[nH]c(=O)o2)c1C` (stereo partly drawn) [Example 123, 4-cyano-N-((1S)-2-(6-fluoro-2,3-dimethylphenyl)-1-(5-oxo-4,5-dihydro-1,3,4-oxadiazol-2-yl)propyl)piperidine-1-sulfonamide], the IC50 lay within 0.1 to 1 µM.
In the case of `Cc1ccc(F)c(C(C)[C@H](NS(=O)(=O)N2CCN(CC(F)F)CC2)c2n[nH]c(=O)o2)c1C` (stereo partly drawn) [Example 124, 4-(2,2-difluoroethyl)-N-((1S)-2-(6-fluoro-2,3-dimethylphenyl)-1-(5-oxo-4,5-dihydro-1,3,4-oxadiazol-2-yl)propyl)piperazine-1-sulfonamide], the IC50 fell in the range of 1 to 10 µM.
Under `COC1CCN(S(=O)(=O)N[C@H](c2n[nH]c(=O)o2)[C@H](C)c2c(F)ccc(C)c2C)CC1` [Example 125, N-((1S,2R)-2-(6-fluoro-2,3-dimethylphenyl)-1-(5-oxo-4,5-dihydro-1,3,4-oxadiazol-2-yl)propyl)-4-methoxypiperidine-1-sulfonamide] stands 0.1 to 1 µM; under `COC1CCN(S(=O)(=O)N[C@H](c2n[nH]c(=O)o2)[C@@H](C)c2c(F)ccc(C)c2C)CC1` [Example 126, N-((1S,2S)-2-(6-fluoro-2,3-dimethylphenyl)-1-(5-oxo-4,5-dihydro-1,3,4-oxadiazol-2-yl)propyl)-4-methoxypiperidine-1-sulfonamide], 1 to 10 µM; under `COCC1CCN(S(=O)(=O)N[C@H](c2n[nH]c(=O)o2)[C@H](C)c2c(F)ccc(C)c2C)CC1` [Example 127, N-((1S,2R)-2-(6-fluoro-2,3-dimethylphenyl)-1-(5-oxo-4,5-dihydro-1,3,4-oxadiazol-2-yl)propyl)-4-(methoxymethyl)piperidine-1-sulfonamide], 0.1 to 1 µM.
As for `COCC1CCN(S(=O)(=O)N[C@H](c2n[nH]c(=O)o2)[C@@H](C)c2c(F)ccc(C)c2C)CC1` [Example 128, N-((1S,2S)-2-(6-fluoro-2,3-dimethylphenyl)-1-(5-oxo-4,5-dihydro-1,3,4-oxadiazol-2-yl)propyl)-4-(methoxymethyl)piperidine-1-sulfonamide], the IC50 lay within 1 to 10 µM.
On to `COCC1CCCN(S(=O)(=O)N[C@H](c2n[nH]c(=O)o2)[C@H](C)c2c(F)ccc(C)c2C)C1` (stereo partly drawn) [Example 129, N-((1S,2R)-2-(6-fluoro-2,3-dimethylphenyl)-1-(5-oxo-4,5-dihydro-1,3,4-oxadiazol-2-yl)propyl)-3-(methoxymethyl)piperidine-1-sulfonamide], for which the IC50 lay within 1 to 10 µM.
Under `COCC1CCCN(S(=O)(=O)N[C@H](c2n[nH]c(=O)o2)[C@@H](C)c2c(F)ccc(C)c2C)C1` (stereo partly drawn) [Example 130, N-((1S,2S)-2-(6-fluoro-2,3-dimethylphenyl)-1-(5-oxo-4,5-dihydro-1,3,4-oxadiazol-2-yl)propyl)-3-(methoxymethyl)piperidine-1-sulfonamide] stands 1 to 10 µM.
For `Cc1ccc(F)c([C@@H](C)[C@H](NS(=O)(=O)N2CCC(C(C)(C)C)CC2)c2n[nH]c(=O)o2)c1C` [Example 131, 4-(tert-butyl)-N-((1S,2R)-2-(6-fluoro-2,3-dimethylphenyl)-1-(5-oxo-4,5-dihydro-1,3,4-oxadiazol-2-yl)propyl)piperidine-1-sulfonamide], the IC50 is 0.1 to 1 µM.
In the case of `Cc1ccc(F)c([C@H](C)[C@H](NS(=O)(=O)N2CCC(C(C)(C)C)CC2)c2n[nH]c(=O)o2)c1C` [Example 132, 4-(tert-butyl)-N-((1S,2S)-2-(6-fluoro-2,3-dimethylphenyl)-1-(5-oxo-4,5-dihydro-1,3,4-oxadiazol-2-yl)propyl)piperidine-1-sulfonamide], the IC50 was 1 to 10 µM.
